Measured values as given in article PMC10137179, “Assessment of Covalently Binding Warhead Compounds in the Validation of the Cytomegalovirus Nuclear Egress Complex as an Antiviral Target” (Cells, 2023).
Like-named read-outs stand apart in the source and are kept apart here.

Assays:
[1] = molecular target: T1, HSV-1 HA-UL34 + Flag-UL31 (Human herpesvirus 1, UniProt P10215+P10218); test: Confocal imaging of core NEC localization in cotransfected HeLa cells, HSV-1; format: cell-based; conditions: 4 µM, 3 d p.t.
T1 construct: expressed in transfected cells; host or cells: HeLa
T1 sequence (P10215 whole entry): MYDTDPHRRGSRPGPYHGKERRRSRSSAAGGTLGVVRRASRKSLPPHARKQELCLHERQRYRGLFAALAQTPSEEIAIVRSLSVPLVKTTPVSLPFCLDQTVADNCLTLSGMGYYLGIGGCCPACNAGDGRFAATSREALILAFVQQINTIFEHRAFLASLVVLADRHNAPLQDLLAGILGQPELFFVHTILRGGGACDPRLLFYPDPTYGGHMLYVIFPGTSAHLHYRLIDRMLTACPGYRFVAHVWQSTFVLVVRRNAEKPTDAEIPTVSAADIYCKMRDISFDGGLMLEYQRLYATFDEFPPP
T1 sequence (P10218 whole entry): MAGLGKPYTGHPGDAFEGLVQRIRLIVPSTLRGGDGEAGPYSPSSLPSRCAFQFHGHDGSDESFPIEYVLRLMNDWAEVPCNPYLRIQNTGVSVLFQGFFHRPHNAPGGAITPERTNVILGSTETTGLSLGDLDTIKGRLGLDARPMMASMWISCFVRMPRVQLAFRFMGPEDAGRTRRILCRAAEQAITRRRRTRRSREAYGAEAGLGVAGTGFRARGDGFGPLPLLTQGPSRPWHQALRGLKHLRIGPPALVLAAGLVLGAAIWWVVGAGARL
Experimental: HFF or HFF-UL50 cells, either Dox-induced or uninduced, were seeded in 6-well plates with a density of 2 × 10^5 cells per well, grown on coverslips and infected with HCMV AD169 or AD169 ∆UL50-ΣUL53. For infection experiments with the recombinant virus, different Shield-1 and Dox conditions were analyzed. Antivirals were added post-infection as described for the experiments. For transfection experiments, HeLa cells were seeded on coverslips in 6-well plates with a density of 3.25 × 10^5 cells per well for cotransfection with the indicated NEC expression plasmids (HSV-1 HA-UL34 + Flag-UL31, HCMV pUL50-HA + pUL53-Flag and EBV HA-BFRF1 + Flag-BFLF2). At indicated time points after virus infection, or 3 days post-transfection, cells were fixed, applied for IF staining as described previously and analyzed using a TCS SP5 confocal laser-scanning microscope with Leica LAS AF software (Leica Microsystems, Wetzlar, Germany). […] The device features a Leica photomultiplier tube (PMT) and a hybrid detector (HyD). Images were further processed using Photoshop CS5 (Adobe Inc., San José, CA, USA). […] Microscopic counting was performed for quantitation of colocalization patterns of two different proteins, as achieved by counting 50 cells per biological triplicate. […]

[2] = molecular target: T2, pUL50–pUL53 interaction (LgBiT::UL53(1–87)-Flag + SmBiT::UL50-HA) (Human cytomegalovirus, UniProt P16791); format: cell-based; conditions: 293T cells, 5×, 1× or 0.2× anti-HCMV EC50 levels, truncated LgBiT::UL53(1–87)-Flag
T2 construct: expressed in transfected cells; host or cells: 293T
T2 sequence (P16791 whole entry, the tested form may be a part): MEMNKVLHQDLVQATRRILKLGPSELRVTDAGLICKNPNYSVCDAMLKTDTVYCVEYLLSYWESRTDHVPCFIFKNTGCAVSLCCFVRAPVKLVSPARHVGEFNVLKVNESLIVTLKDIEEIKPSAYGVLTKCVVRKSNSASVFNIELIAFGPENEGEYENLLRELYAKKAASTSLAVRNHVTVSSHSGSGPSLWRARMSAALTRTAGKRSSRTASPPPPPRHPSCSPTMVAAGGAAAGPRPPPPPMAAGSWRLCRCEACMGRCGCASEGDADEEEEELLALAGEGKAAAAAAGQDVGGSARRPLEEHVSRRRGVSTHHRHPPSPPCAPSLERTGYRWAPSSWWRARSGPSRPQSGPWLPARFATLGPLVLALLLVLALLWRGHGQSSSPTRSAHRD

[3] = molecular target: T3, pUL50–pUL53 interaction (LgBiT::UL53-Flag + SmBiT::UL50-HA) (Human cytomegalovirus, UniProt P16791); format: cell-based; conditions: 293T cells, 5×, 1× or 0.2× anti-HCMV EC50 levels, full-length LgBiT::UL53-Flag
T3 construct: expressed in transfected cells; host or cells: 293T
T3 sequence (P16791 whole entry): as the sequence (P16791 whole entry, the tested form may be a part) above

[4] = molecular target: T4, pUL97–cyclin H interaction (LgBiT::UL97(231–280)-Flag + SmBiT::CycH-HA) (UniProt P16788+P51946); test: NanoBiT specificity control, pUL97–cyclin H; format: cell-based, HCMV; conditions: ibrutinib 3.75–30 µM
T4 construct: open reading frames coding for HCMV pUL97 (amino acids 231–280); expressed in transfected cells; host or cells: 293T
T4 sequence (P16788 231-280 limits assumed): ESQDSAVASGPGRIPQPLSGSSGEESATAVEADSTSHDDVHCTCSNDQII
T4 sequence (P51946 1-323): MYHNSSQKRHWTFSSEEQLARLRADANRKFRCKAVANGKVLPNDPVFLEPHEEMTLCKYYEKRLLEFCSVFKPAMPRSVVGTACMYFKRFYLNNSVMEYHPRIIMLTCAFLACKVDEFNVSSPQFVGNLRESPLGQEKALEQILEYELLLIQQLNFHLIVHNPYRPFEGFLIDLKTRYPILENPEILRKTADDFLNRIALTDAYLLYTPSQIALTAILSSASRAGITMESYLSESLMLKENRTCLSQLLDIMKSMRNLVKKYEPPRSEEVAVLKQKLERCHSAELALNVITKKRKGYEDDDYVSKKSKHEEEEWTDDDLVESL

HCMV AD169 (WT) = test: qPCR-based replication assay, parental HCMV AD169 (WT) in HFF-UL50 cells; format: cell-based
Experimental: The viral genome copy number in cell culture supernatants was determined by IE1-specific quantitative real-time PCR (qPCR) as described previously. […] For the qPCR reactions, aliquots of infected-cell supernatants were incubated with proteinase K (Sigma-Aldrich, St. Louis, MO, USA) at 56 °C for 1 h in order to release the viral DNA. After a denaturation step at 95 °C for 5 min, the DNA samples were optionally stored at 4 °C or directly used for qPCR, as performed in a 25 µL reaction mixture containing 5 µL of either the sample or the standard DNA solution. Additional components of the reaction mixture were 12.5 µL 2× TaqMan PCR Mastermix (Applied Biosystems, Waltham, MA, USA), 7.5 pmol of each primer (5′-[…]-3′) and 5′-[…]-3′) and 5 pmol probe directed against the HCMV MIE region exon 4 (5′-[…]-3′), which was labeled with 6-carboxyfluorescein reporter dye and 6-carboxytetramethylrhodamine quencher dye. The DNA standard for quantification was prepared by serial dilutions of an MIE-inserted plasmid. The thermal cycling conditions consisted of two initial steps of 2 min at 50 °C and 10 min at 95 °C followed by 40 amplification cycles (15 s at 95 °C, 1 min 60 °C). Reactions were performed with an ABI Prism 7700 sequence detector (Applied Biosystems, Waltham, MA, USA).
To this end, the conditional expression system of the HCMV ΔUL50-ΣUL53 recombinant was applied. […] The relative differences in viral replication efficiencies, under these four chosen conditions, were normalized by two means, namely, by using the same conditions in the DMSO control panel (±S, ±D) and by evaluating viral replication in percentage values (% DMSO).
HFF-UL50 cells were cultivated in 96-well plates and infected with (A,B) HCMV ∆UL50-ΣUL53, with (C) parental HCMV AD169 (WT), using adjusted genome copy numbers, or remained uninfected (mock). Viral input was adjusted to 1 × 10^5 copies per well. […] Dox was refreshed every second day. At 14 d p.i., supernatants were harvested, and viral genome equivalents were determined using HCMV IE1-specific qPCR. […]

C=CC(=O)N1CCC[C@@H](n2nc(-c3ccc(Oc4ccccc4)cc3)c3c(N)ncnc32)C1 [ibrutinib]
core NEC nuclear rim localization (in words) [1]: did not show any similar alteration in nuclear rim localization
inhibitory effect on NanoBiT interaction signal (in words) [2]: most prominent, dose-dependent reduction in the measured interaction signal
inhibitory effect on NanoBiT interaction signal (in words) [3]: most prominent, dose-dependent reduction in the measured interaction signal
effect on pUL97–cyclin H NanoBiT interaction (in words) [4]: inactive
EC50 (HCMV AD169 (WT); Human betaherpesvirus 5, AD169, 336 h, AD169 WT, +S+D, 14 d p.i., qPCR, read-out: EC50): 2.3 ± 1.8 µM
EC50 (HCMV AD169 (WT); Human betaherpesvirus 5, AD169, 336 h, AD169 WT, -S-D, 14 d p.i., qPCR, read-out: EC50): 2.5 ± 2.8 µM
EC50 (HCMV AD169 (WT); Human betaherpesvirus 5, AD169, parental HCMV AD169, qPCR-based assays, mean, read-out: mean EC50): 2.4 µM
